Entries after “also recorded” stand apart in the source; their conditions may differ.
Legend:
PDX T-ALL cells = experiment: JQ-FT treatment of patient-derived xenograft (PDX) T-ALL cells in vitro; format: cell-based, human
Description: Errors bars denote mean±SD of 4 replicates. […] The blot was stained with an antibody against the C-terminus of NOTCH1 that recognizes both the furin-processed NOTCH1 transmembrane subunit (TM) and the unprocessed NOTCH1 precursor (FL). The immunoblot was also stained with anti-ICN1 antibody. GAPDH was used as a loading control. […] Error bars indicate the mean±SD of 4 replicates. Data were analyzed using the ΔΔCT method and plotted as a percentage relative to the control gene RPL13A. Statistical significance among groups for treated vs. vehicle (DMSO) samples (***P≤0.0001) was determined by one-way ANOVA with Bonferroni's correction for multiple comparison testing. […] The blot was stained with an antibody against the C-terminus of NOTCH1 (N1) that recognizes both the furin-processed NOTCH1 transmembrane subunit (TM). GAPDH was used as a loading control. […] Cells were probed with an anti-NOTCH1 antibody (green) and nuclei were counterstained with DAPI. […] Error bars indicate the mean±SD of 4 replicates. Data were analyzed using the ΔΔCT method and plotted as a percentage relative to the control gene RPL13A. Statistical significance (***P≤0.001. ****P≤0.0001) for treated vs. vehicle (DMSO) was determined by one-way ANOVA with Bonferroni's correction for multiple comparison testing.
To assess the translational significance of these findings, we studied patient-derived xenografts (PDX) from T-ALL patients at the Dana-Farber Cancer Institute.

panel of cell lines = experiment: Apoptosis luminescence assay (Caspase) in a panel of cell lines; format: cell-based; settings: 384-well plates, 72 hours
Description: Cells were grown in 384-well plates and treated for 72 hours with the indicated dose of Folate-Thap. Apoptosis was measured using a luminescence assay developed by Promega.

NOTCH1 = NOTCH1 cell surface staining by flow cytometry; format: cell-based, human; settings: T-ALL cells; for NOTCH1 expression on the cell surface: 24 hours
Excerpt: We previously described that the SERCA inhibitors thapsigargin and cyclopiazonic acid impair NOTCH1 maturation leading to an accumulation of full-length, unprocessed polypeptides in the endoplasmic reticulum/Golgi subcellular compartment. An immediate consequence of SERCA inhibition is a decrement in NOTCH1 protein display on the surface of T-ALL cells. […] To further support the hypothesis that Thap-OH impairs mutant NOTCH1 maturation, we evaluated levels of full-length, transmembrane and activated NOTCH1 (ICN1) by WB. Lysates from T-ALL cell lines treated with 1 μM Thap-OH were immunoblotted with an antibody specific for the cytoplasmic portion of NOTCH1 that recognizes both unprocessed NOTCH1 (FL-N1) (˜270 kDa) and the furin-processed transmembrane subunit (TM-N1) (˜110 kDa).
The NOTCH loss was measured via flow cytometry. […] The recapitulation of the thapsigargin effect by JQ-FT is hypothesized to be due to the delivery strategy introduced by folate. […] Here cell growth was assessed using the Promega Cell-Titer Glo ATP-based assay (Promega, Madison, Wis., USA). Luminescence was measured using a Fluostar Omega instrument (BMG-labtech, Ortenberg, Germany).

[1] = test system: NOTCH1 L1601P ΔPEST T-ALL; experiment: Syngeneic T-ALL mouse model carrying NOTCH1 L1601P ΔPEST; format: in vivo
Description: Viability data is represented as percentage relative to vehicle treatment and errors bars denote mean±SD of 3 replicates. Statistical significance of treated vs. vehicle (DMSO) samples (***P≤0.01; ***P≤0.001) was determined by one-way ANOVA with Bonferroni's correction for multiple comparison testing. […] The immunoblot contains cell lysates stained with anti-ICN1 antibody (Val1744) after treatment with the 10 μM of JQ-FT for 24 hours in vitro. GAPDH was used as a loading control ICN1 loss was quantified and bar graph (panel e) corresponds to the results of the quantification of three independent experiments. Statistical significance of treated vs. vehicle (DMSO) samples (*P≤0.05) was determined by Student's t-test. Expression of indicated NOTCH1 target genes HesI (panel d) and Dtx1 (panel e) in murine NOTCH1 L1601P ΔPEST expressing leukemia lymphoblasts treated with 10 μM JQ-FT for 24 hours was determined by qRT-PCR. Error bars indicate the mean±SD of 3 replicates. Data were analyzed using the ΔΔCT method and plotted as a percentage relative to the control gene Gapdh. Statistical significance for treated vs. vehicle (DMSO) (*P≤0.05) was determined by Student's t-test. […] The spleen and the liver of all mice were examined; representative results for one control animal and one JQ-FT-treated animal are shown. Formalin-fixed, paraffin-embedded tissue sections were stained using the hematoxylin and eosin stain (H & E) method. […] Anti-leukemic activity of JQ-FT was assessed by measuring spleen weight upon 5 days of JQ-FT treatment (60 mg/kg I.P) or vehicle (65% D5W+30% PEG-400+5% Tween-80only). […] Statistical significance for treated vs. vehicle (*P≤0.05) was determined by non-parametric t-test (Mann-Whitney). […] Error bars indicate mean±SD of 4 replicates (of the 4 animals of each group). Statistical significance for treated vs. vehicle (*P≤0.05) was determined by non-parametric t-test (Mann-Whitney). […] The immunoblot contains splenic cell lysates stained with anti-ICN1 antibody (Val1744) after treatment with the 60 mg/Kg of JQ-FT for 5 days. GAPDH was used as a loading control. ICN1 loss was quantified and bar graph (j) corresponds to the results of the quantification. Statistical significance for treated vs. vehicle (*P≤0.05) was determined by Student's t-test.
In vitro studies provide valuable mechanistic insights but may not recapitulate tumor micro-environment and metabolic conditions in vivo. Indeed, a significant limitation of research on folate-conjugate drugs is the inconsistency between free folate concentrations (and other middle metabolites) in culture conditions in vitro versus in vivo. High levels of free folic acid in the sera may block the binding and uptake of JQ-FT in FR2-positive T-ALL compromising the anti-NOTCH1 leukemia effect observed in vitro. To explore the therapeutic efficacy of JQ-FT in vivo, we studied effects on a syngeneic T-ALL mouse model carrying a NOTCH1 L1601P ΔPEST, a common mutation observed in the human disease. First, leukemia cells obtained from this model were treated with JQ-FT for 24 hours in vitro.
Though the JQ-FT conjugate has not, as yet, been optimized for pharmacologic properties, we are eager to explore the utility of the compound as an in vivo chemical probe, while assessing putative tolerability of folate-conjugated thapsigargins. We first established the maximal tolerated dose (MTD) of JQ-FT as 60 mg/kg/day in mice, as administered by daily intraperitoneal injection. […]

[2] = NOTCH1-mutated PDX cells, 24 hours

Structure (SMILES): C/C=C(/C)C(=O)O[C@H]1C(C)=C2C([C@@H]1OC(=O)CCCCCCC)[C@@](C)(OC(C)=O)C[C@H](OC(=O)CC[C@H](NC(=O)c1ccc(NCc3cnc4nc(N)[nH]c(=O)c4n3)cc1)C(=O)O)[C@@]1(O)[C@H]2OC(=O)[C@@]1(C)O (some centres unmarked) [JQ-FT]
- ICN1 in NOTCH1-mutated PDX cells (PDX T-ALL cells; [2]): depletion of detectable ICN1
- transmembrane NOTCH1 in NOTCH1-mutated PDX cells (PDX T-ALL cells; [2]): loss of transmembrane NOTCH1
- expression of NOTCH1 target genes DTX and MYC in NOTCH1 mutant PDX samples (PDX T-ALL cells; NOTCH1 mutant samples, 24 hours): decreased
- NOTCH1 processing in WT NOTCH1 PDX cells (PDX T-ALL cells; PDX T-ALL cells possessing WT NOTCH1): no effect was observed
- NOTCH1 target gene transcription in WT PDX samples (PDX T-ALL cells; WT PDX samples, 24 hours): no transcriptional changes were observed
- apoptosis as measured by Caspase (panel of cell lines): apoptotic effect
- effect on cell surface NOTCH1 compared with thapsigargin (NOTCH1): more similar to thapsigargin at 20 uM
- NOTCH1 expression on the cell surface (NOTCH1): show NOTCH loss
- NOTCH1 expression on the cell surface (NOTCH1; listed as Folate-Thap): loss of Notch in a manner similar to thapsigargin
- bone marrow infiltration by T-ALL (GFP+ leukemia cells) ([1]; 60 mg/kg IP daily, five days): markedly inhibited
- leukemic infiltration in spleen and liver (histology) ([1]; 60 mg/kg IP daily, five days): decrease of leukemic infiltration in spleen and liver; also recorded: Growth suppression of lymphoblasts
- spleen weight ([1]; 60 mg/kg IP daily, five days): reduction in spleen weight
- tumor growth ([1]; 60 mg/kg IP daily, five days): evident decrease in tumor growth
- ICN1 expression in T-ALL cells from treated animals ([1]; 60 mg/kg, 5 days, splenic cell lysates, vs vehicle): reduced ICN1 expression

From patent publication US10525139B2, “Folate-conjugated molecules for delivery of toxic small molecule inhibitors to cancer cells and methods of use” (priority 2014, dated 2020)
